These results are taken from patent publication US20240132464A1, “HETEROCYCLIC COMPOUNDS AS E3 LIGASE INHIBITORS” (Accutar Biotechnology Inc., priority 2022, published 2024).

The assay has as its target T1, GID4 (Uniprot ID: Q81VV7, residues 124-289) (Homo sapiens, UniProt Q8IVV7).
T1 construct: GID4 (Uniprot ID: Q81VV7, residues 124-289)
T1 sequence (Q8IVV7 124-289): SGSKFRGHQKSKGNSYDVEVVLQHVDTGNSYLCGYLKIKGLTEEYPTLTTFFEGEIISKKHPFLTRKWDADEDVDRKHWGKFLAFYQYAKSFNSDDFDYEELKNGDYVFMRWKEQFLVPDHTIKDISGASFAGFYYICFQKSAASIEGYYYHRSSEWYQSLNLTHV
Briefly: GID4 competitive binding assay (AlphaScreen, GID4/degron peptide PGLW). Conditions: 24 nM GID4, 48 nM biotinylated degron peptide PGLW, 4° C., read-out: IC50 (Inhibition of GID4/Degron binding by test compounds). The essentials:
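Displacement of biotin-tagged degron tetrapeptide PGLW (48 nM) from C-terminally 6His-tagged GID4 124-289 (24 nM) read by AlphaScreen proximity signal. Compound incubation 2 h, then beads 1 h, all at 4 °C, pH 7.5, 2% DMSO final; background-corrected inhibition fitted with variable slope for IC50.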
(In general: In Alpha technology, singlet oxygen from a donor bead excites a nearby acceptor bead.)
Take `CN1CCN(c2cc(NCC3CC3)nc(N)n2)CC1c1ccccc1Br` (single isomer, unassigned) [Compound 99, (R/S)-6-(3-(2-bromophenyl)-4-methylpiperazin-1-yl)-N4-(cyclopropylmethyl)pyrimidine-2,4-diamine]: the IC50 was below 0.5 µM. Turning to `Nc1nc(C2CC2)cc(N2CCNC(c3cnc4ccccn34)C2)n1` (single isomer, unassigned) [Compound 103, (S/R)-4-cyclopropyl-6-(3-(imidazo[1,2-a]pyridin-3-yl)piperazin-1-yl)pyrimidin-2-amine], the IC50 was in the range of 0.5 to 5 µM. For the molecule `Nc1nc(C2CC2)cc(N2CCNC(c3cnc4ccccn34)C2)n1` (single isomer, unassigned) [Compound 104, (R/S)-4-cyclopropyl-6-(3-(imidazo[1,2-a]pyridin-3-yl)piperazin-1-yl)pyrimidin-2-amine], the IC50 is above 5 µM. Consider `CC(C)c1cc(N2CCN(C)C(c3cnc4ccccn34)C2)nc(N)n1` (single isomer, unassigned) [Compound 105, (S/R)-4-(3-(imidazo[1,2-a]pyridin-3-yl)-4-methylpiperazin-1-yl)-6-isopropylpyrimidin-2-amine], for which the IC50 was above 5 µM. As for `CNc1cc(N2CCOC(c3ccccc3)C2)nc(N)n1` (single isomer, unassigned) [Compound 108, (R/S)-N4-methyl-6-(2-phenylmorpholino)pyrimidine-2,4-diamine], the IC50 is above 5 µM. Regarding `Nc1nc(NCC2CC2)cc(N2CCNC(c3ccccc3Br)C2)n1` (single isomer, unassigned) [Compound 111, (R/S)-6-(3-(2-bromophenyl)piperazin-1-yl)-N4-(cyclopropylmethyl)pyrimidine-2,4-diamine], the IC50 was 0.5 to 5 µM.

For `CNc1nc(N)cc(N2CCNC(c3ccccc3Br)C2)n1` (single isomer, unassigned) [Compound 113, (R/S)-6-(3-(2-bromophenyl)piperazin-1-yl)-N2-methylpyrimidine-2,4-diamine], the IC50 was in the range of 0.5 to 5 µM. For `Nc1cc(N2CCCC(c3cnc4ccccn34)C2)nc(N)n1` (single isomer, unassigned) [Compound 115, (S/R)-6-(3-(imidazo[1,2-a]pyridin-3-yl)piperidin-1-yl)pyrimidine-2,4-diamine], the IC50 was above 5 µM. For the molecule `Nc1nc(NC2CC2)cc(N2CCNC(c3ccccc3Br)C2)n1` (single isomer, unassigned) [Compound 121, (R/S)-6-(3-(2-bromophenyl)piperazin-1-yl)-N4-cyclopropylpyrimidine-2,4-diamine], the IC50 is above 5 µM.

For the molecule `CNc1cc(N2CCCC(c3cnc4ccccn34)C2)nc(C(C)C)n1` (single isomer, unassigned) [Compound 125, (S/R)-6-(3-(imidazo[1,2-a]pyridin-3-yl)piperidin-1-yl)-2-isopropyl-N-methylpyrimidin-4-amine], the IC50 lay within 0.5 to 5 µM. As for `CNc1cc(N2CCCC(c3cnc4ccccn34)C2)nc(C(C)C)n1` (single isomer, unassigned) [Compound 126, (R/S)-6-(3-(imidazo[1,2-a]pyridin-3-yl)piperidin-1-yl)-2-isopropyl-N-methylpyrimidin-4-amine], the IC50 is below 0.5 µM.

For `CNc1cc(N2CCNC(c3ccccc3)C2)nc(N)n1` (single isomer, unassigned) [Compound 128, (R/S)-N4-methyl-6-(3-phenylpiperazin-1-yl)pyrimidine-2,4-diamine], the IC50 is above 5 µM.

Turning to `Nc1cc(N2CCOC(c3cnc4ccccn34)C2)nc(N)n1` (single isomer, unassigned) [Compound 137, (S/R)-6-(2-(imidazo[1,2-a]pyridin-3-yl)morpholino)pyrimidine-2,4-diamine], the IC50 is above 5 µM. For the molecule `CC(C)c1nc(N)cc(N2CCCC(c3cnc4ccccn34)C2)n1` (single isomer, unassigned) [Compound 141, R or S-6-(3-(imidazo[1,2-a]pyridin-3-yl)piperidin-1-yl)-2-isopropylpyrimidin-4-amine], the IC50 is below 0.5 µM. On to `CC(C)c1nc(N)cc(N2CCCC(c3cnc4ccccn34)C2)n1` (single isomer, unassigned) [Compound 142, R or S-6-(3-(imidazo[1,2-a]pyridin-3-yl)piperidin-1-yl)-2-isopropylpyrimidin-4-amine], for which the IC50 is below 0.5 µM. Take `CN1CCN(c2cc(N)nc(N)n2)CC1c1ccccc1Br` (single isomer, unassigned) [Compound 143, (R/S)-6-(3-(2-bromophenyl)-4-methylpiperazin-1-yl)pyrimidine-2,4-diamine]: the IC50 is below 0.5 µM. Turning to `Nc1cc(N2CCOC(c3ccccc3Br)C2)nc(N)n1` (single isomer, unassigned) [Compound 146, (S/R)-6-(2-(2-bromophenyl)morpholino)pyrimidine-2,4-diamine], the IC50 is below 0.5 µM. Regarding `CC(C)c1cc(N2CCCC(c3cnc4ccccn34)C2)ncn1` (single isomer, unassigned) [Compound 149, (S/R)-3-(1-(6-isopropylpyrimidin-4-yl)piperidin-3-yl)imidazo[1,2-a]pyridine], the IC50 was above 5 µM. Regarding `CC(C)Nc1nc(C(C)C)cc(N2CCNC(c3ccccc3Br)C2)n1` (single isomer, unassigned) [Compound 150, (S/R)-4-(3-(2-bromophenyl)piperazin-1-yl)-N,6-diisopropylpyrimidin-2-amine], the IC50 was above 5 µM. The value for `CC(C)Nc1nc(C(C)C)cc(N2CCNC(c3ccccc3Br)C2)n1` (single isomer, unassigned) [Compound 151, (R/S)-4-(3-(2-bromophenyl)piperazin-1-yl)-N,6-diisopropylpyrimidin-2-amine] was above 5 µM; that for `CNc1nc(C(C)C)cc(N2CCNC(c3ccccc3Br)C2)n1` (single isomer, unassigned) [Compound 152, (R/S)-4-(3-(2-bromophenyl)piperazin-1-yl)-6-isopropyl-N-methylpyrimidin-2-amine] was 0.5 to 5 µM. Take `CNc1nc(C(C)C)cc(N2CCNC(c3ccccc3Br)C2)n1` (single isomer, unassigned) [Compound 153, R or S-4-(3-(2-bromophenyl)piperazin-1-yl)-6-isopropyl-N-methylpyrimidin-2-amine]: the IC50 lay in the range of 0.5 to 5 µM. In the case of `CC(C)c1cc(N2CCOC(c3cnc4ccccn34)C2)nc(N)n1` (single isomer, unassigned) [Compound 157, (S/R)-4-(2-(imidazo[1,2-a]pyridin-3-yl)morpholino)-6-isopropylpyrimidin-2-amine], the IC50 was above 5 µM. `CC(C)c1cc(N2CCOC(c3ccccc3Br)C2)nc(N)n1` (single isomer, unassigned) [Compound 159, (S/R)-4-(2-(2-bromophenyl)morpholino)-6-isopropylpyrimidin-2-amine]: the IC50 was in the range of 0.5 to 5 µM. Regarding `CC(C)c1cc(N2CCN(C)C(c3ccccc3Br)C2)nc(N)n1` (single isomer, unassigned) [Compound 160, (R/S)-4-(3-(2-bromophenyl)-4-methylpiperazin-1-yl)-6-isopropylpyrimidin-2-amine], the IC50 was 0.5 to 5 µM. With `CC(C)c1cc(N2CCNC(c3cnc4ccccn34)C2)c2cc[nH]c2n1` (single isomer, unassigned) [Compound 372, (S/R)-3-(4-(6-isopropyl-1H-pyrrolo[2,3-b]pyridin-4-yl)piperazin-2-yl)imidazo[1,2-a]pyridine], the IC50 is below 0.5 µM.

With `Nc1cc(N2CCO[C@](CO)(c3ccccc3Br)C2)nc(N)n1` (stereo in doubt) [Compound 36, (R/S)-(2-(2-bromophenyl)-4-(2,6-diaminopyrimidin-4-yl)morpholin-2-yl)methanol], the IC50 is above 5 µM.

Consider `Nc1cc(N2CCO[C@@](CO)(c3ccccc3Br)C2)nc(N)n1` (stereo in doubt) [Compound 37, (S/R)-(2-(2-bromophenyl)-4-(2,6-diaminopyrimidin-4-yl)morpholin-2-yl)methanol], for which the IC50 was below 0.5 µM. On to `CC(=O)N1CCN(c2cc(N)nc(N)n2)C[C@@H]1c1ccccc1Br` (stereo in doubt) [Compound 59, (S/R)-1-(2-(2-bromophenyl)-4-(2,6-diaminopyrimidin-4-yl)piperazin-1-yl)ethan-1-one], for which the IC50 is above 5 µM. With `CC(=O)N1CCN(c2cc(N)nc(N)n2)C[C@H]1c1ccccc1Br` (stereo in doubt) [Compound 60, (R/S)-1-(2-(2-bromophenyl)-4-(2,6-diaminopyrimidin-4-yl)piperazin-1-yl)ethan-1-one], the IC50 was above 5 µM. As for `Nc1nc(NC2CC2)nc(N2CCN[C@H](c3ccccc3Br)C2)n1` (stereo in doubt) [Compound 64, (R/S)-6-(3-(2-bromophenyl)piperazin-1-yl)-N2-cyclopropyl-1,3,5-triazine-2,4-diamine], the IC50 was above 5 µM. For the molecule `Nc1nc(NC2CC2)nc(N2CCN[C@@H](c3ccccc3Br)C2)n1` (stereo in doubt) [Compound 65, (S/R)-6-(3-(2-bromophenyl)piperazin-1-yl)-N2-cyclopropyl-1,3,5-triazine-2,4-diamine], the IC50 lay in the range of 0.5 to 5 µM. Turning to `Nc1cc(N2CCN(CCO)[C@@H](c3ccccc3Br)C2)nc(N)n1` (stereo in doubt) [Compound 66, (S/R)-2-(2-(2-bromophenyl)-4-(2,6-diaminopyrimidin-4-yl)piperazin-1-yl)ethan-1-ol], the IC50 was above 5 µM. Under `Nc1cc(N2CCN(CCO)[C@H](c3ccccc3Br)C2)nc(N)n1` (stereo in doubt) [Compound 67, (R/S)-2-(2-(2-bromophenyl)-4-(2,6-diaminopyrimidin-4-yl)piperazin-1-yl)ethan-1-ol] stands 0.5 to 5 µM.
